From patent US20240299275A1, “HYDROXY ACIDS FOR SCALP AND HAIR IN SULFATE FREE PERSONAL CARE COMPOSITIONS” (The Procter & Gamble Company, priority 2023, published 2024)
Where “and” joins values, the source holds several entries; their conditions need not be identical. Equal entries are not always repeated.

Key:
[1] = Surfactant stability: change in lauric acid concentration of surfactant solutions after 65 C for 1 month vs baseline (HPLC/MS/MS); assay type: physicochemical; conditions: for Delta % lauric acid/Anionic Surfactant Conc.: 65 C 1 month; for Delta % lauric acid/Co Surfactant Conc.: 8.0% co surfactant alone, 65 C 1 month vs as made at about 25 C
Method: Lowering the personal care composition's pH is a key driver of hydroxy acid delivery to the hair and the skin under the hair. However, lowering pH reduces the options of suitable anionic surfactants free-of sulfates as many are susceptible to hydrolysis. Therefore, surfactant stability is analyzed by measuring the change in lauric acid concentration of surfactant solutions after exposure to high temperature (65 C) for 1 month and at range of pH vs. baseline conditions (surfactant solutions as made at ambient temperature of about 25 C). As shown in the table below, the Taurate surfactants are less susceptible to degradation at lower pH and (rows 8-10, 17-21 and 30-33) vs. other common amino acid based anionic surfactants (Sarcosinate, Alaninate, Glutamate, Glycinate, and Isethionate).
Approximately 10 mg of each sample is weighed into a vial and 10 mL of isopropanol (IPA) added and mixed. An aliquot of the diluted sample (0.1 mL) is then transferred into an autosampler vial containing stable-isotope-labeled (D23 lauric acid) internal standard (ISTD) and diluent (85/15 IPA/water, 0.9 mL). A set of lauric acid standards is prepared over an appropriate calibration range in diluent and spiked with ISTD. The standards and samples are analyzed using gradient reversed-phase high performance liquid chromatography with tandem mass spectrometry (HPLC/MS/MS). Lauric acid and the ISTD are monitored by negative ion electrospray (ESI) using “pseudo” selected reaction monitoring (i.e., a precursor-to-precursor transition with no mass loss). A standard curve is constructed by plotting the peak area ratio (peak area lauric acid/peak area ISTD) for each standard versus lauric acid concentration. The amount of lauric acid in the calibration standards and diluted samples is back-calculated using the generated regression equation. The result is reported as the mass of lauric acid per g of sample (% Lauric Acid).

forearm skin = experiment: Surfactant mildness forearm study, GPSkin device, TEWL; assay type: in vivo; conditions: Sodium Methyl Cocoyl Taurate at 2.5% vs Sodium Lauryl Sulfate at 9.0%, pH 3.0 compositions
Method: • Method. A simple forearm study design approach is leveraged to screen prototypes for skin health benefits. GPSkin devices from GPOWER Inc. are used to monitor skin health over the duration of the study. Baseline GPSkin health measures are taken on day 1 followed by product treatment and rinse. This procedure is repeated over three consecutive days and two treatments are evaluated. n=7

[2] = 7.0% Cocamidopropyl Betaine + 3.0% anionic surfactant, pH 4.5
[3] = 7.0% Cocamidopropyl Betaine + 3.0% anionic surfactant, pH 5.2
[4] = 7.0% Cocamidopropyl Betaine + 3.0% anionic surfactant, pH 5.8
[5] = 7.0% Cocamidopropyl Betaine + 3.0% anionic surfactant, pH 6.5

## CCCCCCCCCCCC(=O)OC(C)CS(=O)(=O)[O-].[Na+] (centres unmarked) [Sodium Lauroyl Methyl Isethionate]
[1]; [2]
  Delta % lauric acid/Anionic Surfactant Conc.: 16.097%
[1]; [3]
  Delta % lauric acid/Anionic Surfactant Conc.: 5.262%
[1]; [4]
  Delta % lauric acid/Anionic Surfactant Conc.: 2.867%
[1]; [5]
  Delta % lauric acid/Anionic Surfactant Conc.: 3.002%

## Cocamidopropyl Betaine
[1]; pH 5.2
  Delta % lauric acid/Co Surfactant Conc.: 0.130%
[1]; pH 5.8
  Delta % lauric acid/Co Surfactant Conc.: 0.216%
[1]; pH 6.5
  Delta % lauric acid/Co Surfactant Conc.: 0.187% and 0.154%

## Sodium cocoyl isethionate
[1]; [3]
  Delta % lauric acid/Anionic Surfactant Conc.: 7.379%
[1]; 7.0% Cocamidopropyl Betaine + 3.0% anionic surfactant, pH 5.7
  Delta % lauric acid/Anionic Surfactant Conc.: 4.277%
[1]; 7.0% Cocamidopropyl Betaine + 3.0% anionic surfactant, pH 6.4
  Delta % lauric acid/Anionic Surfactant Conc.: 3.124%

## Sodium methyl cocoyl taurate
[1]; [3]
  Delta % lauric acid/Anionic Surfactant Conc.: 1.005% and 1.220% and 1.468%
[1]; [4]
  Delta % lauric acid/Anionic Surfactant Conc.: 0.689%
[1]; [5]
  Delta % lauric acid/Anionic Surfactant Conc.: 0.510%
[1]; 8.0% anionic surfactant alone, pH 5.1
  Delta % lauric acid/Anionic Surfactant Conc.: 0.218%
[1]; 8.0% anionic surfactant alone, pH 5.8
  Delta % lauric acid/Anionic Surfactant Conc.: 0.026%
[1]; 8.0% anionic surfactant alone, pH 6.5
  Delta % lauric acid/Anionic Surfactant Conc.: 0.223%
Forearm skin
  mildness on forearm skin: milder on forearm skin than Sodium Lauryl Sulfate at 9.0%

## Sodium cocoyl taurate
[1]; [2]
  Delta % lauric acid/Anionic Surfactant Conc.: 1.076%
[1]; [3]
  Delta % lauric acid/Anionic Surfactant Conc.: 0.135%
[1]; [4]
  Delta % lauric acid/Anionic Surfactant Conc.: −0.276%
[1]; [5]
  Delta % lauric acid/Anionic Surfactant Conc.: 0.024%

## Sodium cocoyl glycinate
[1]; [2]
  Delta % lauric acid/Anionic Surfactant Conc.: 12.626%
[1]; [3]
  Delta % lauric acid/Anionic Surfactant Conc.: 7.971%
[1]; [4]
  Delta % lauric acid/Anionic Surfactant Conc.: 1.791%
[1]; [5]
  Delta % lauric acid/Anionic Surfactant Conc.: 0.619%

## Sodium cocoyl alaninate
[1]; [2]
  Delta % lauric acid/Anionic Surfactant Conc.: 9.905%
[1]; [3]
  Delta % lauric acid/Anionic Surfactant Conc.: 5.890%
[1]; [4]
  Delta % lauric acid/Anionic Surfactant Conc.: 2.058%
[1]; [5]
  Delta % lauric acid/Anionic Surfactant Conc.: 1.097%
[1]; 8.0% anionic surfactant alone, pH 5.2
  Delta % lauric acid/Anionic Surfactant Conc.: 5.735%
[1]; 8.0% anionic surfactant alone, pH 5.6
  Delta % lauric acid/Anionic Surfactant Conc.: 2.086%
[1]; 8.0% anionic surfactant alone, pH 6.3
  Delta % lauric acid/Anionic Surfactant Conc.: 0.729%
